Data published in patent EP0574185B1, “PGE1 analogs” (NEWPHARMA INTERNATIONAL CORPORATION, priority 1992, dated 1993).

Key:
anesthetized rat = assay: Blood pressure and heart rate in anesthetized rat; type: in vivo, male Wistar rats; settings: i.v.; for HR (Heart Rate): basal 440,8 ± 9,7; for Δ MBP (Mean Blood Pressure): basal MBP 120,9 ± 4,6, n= 6
Description: The acute effect of B-407 on the cardiovascular system was studied. After doses of 10 µg/kg, 30 µg/kg, and 100 µg/kg, administered intravenously (i.v.) the arterial blood pressure and heart rate were evaluated on male Wistar rats weighing 300 g to 350 g. Rats were anesthetized with 40 mg/kg, i.p., of sodium pentobarbital. The left jugular vein was cannulated by means of polyethylene tubing to allow the i.v. administration of drugs. The trachea was cannulated to facilitate ventilation and the right carotid artery was cannulated to record blood pressure and heart beat. A dose of 350 UI/kg, i.v., sodium heparin was administered. The catheter of the artery was connected to a pressure transducer attached to a Berger polygraph. The volume of the i.v. administrations was 0.4 ml/kg. The working protocol was as follows:
A steady-state recording was obtained over a 30 minutes time period. Then a dose of 0.5 µg/kg of noradrenaline followed by 0.5 µg/kg of isoproterenol were administered over 5 to 10 minutes. After 5 min of recording, increasing doses of B-407 were administered every 15 minutes. The mean arterial blood pressure (mm Hg) was obtained by calculating the average of the values of […]. The heart rate (beats/min) was obtained by counting the number of contractions by units of time.

[1] = system: rat uterus under diestrous condition; assay: C2: effect on PGF2α induced in vitro contraction of rat uterus under diestrous condition; settings: B-407 1x10^-8 M; PGF2α 10^-9M; nutrient solution 1,04; p < 0.02
Description: (§1) Then, a known concentration of the test prostaglandin was added and no washing was carried out during the following 15 minutes. PGF2α (10^-8 M) was added, washing once after 2 minutes and then twice over a total time period of 15 minutes. The result was expressed as the relationship between the effect of PGF2α after the treatment with B-407 and the sum of the effect of PGF2α (mean of the three initial additions) and the effect of B-407 "per se". The recordings of the contractions and their quantitation were performed as described in (A).
The experimental conditions were identical to those described in B2 and the working protocol was similar to that of C1 but the PGF2α concentration was of 10^-9M. The recordings of the contractions and their quantitation were performed as described in (A).
* p < 0.05: Tested vs. nutrient solution by ANOVA and Scheffe. ** p < 0.02: Tested vs. nutrient solution by Student's-t-test. Ratio = Effect of PGF2α after B-407/(Effect of PG F2α before B-407 + Effect of B-407). […]
The frequency and magnitude of the responses were globally evaluated by calculating the total area recorded at a fixed time period as will be further explained. […]
The calibration was made by weighing a piece of paper which corresponded to a tension of 1 g at the working sensitivity along 2 minutes. […] The results were expressed as the mean ± the standard error of the areas obtained. […]

Swiss male mice = assay: Motor activity in mice (rota-rod); settings: 100 µg/kg, i.p., 15 min prior to the test; vehicle 0/10
[2] = system: guinea pig isolated trachea; assay: Relaxation of histamine contracted guinea pig tracheal chain in vitro; parameters: species or system guinea pigs; settings: 10^-5 M; percentage on the histamine (1x10^-6 M) induced contraction; n = 8; vehicle -7 ± 3
Description: The effect of B-407 on isolated trachea was evaluated in guinea pigs weighing 700 g. The animals were killed and the trachea was dissected out, transferred to a dish containing Krebs solution and cut transversely between the segments of cartilage, so as to give a number of rings of tracheal muscle. Five rings were tied up together with cotton threads, so as to form a chain, which was then mounted in a 10 ml bath with Krebs solution at 37°C, aerated with a mixture of oxygen (95 %) and carbon dioxide (5 %). The load on the lever was 0.4 g. The organ was left to stabilize for 15 to 30 min.
Enough quantity (100 µl) of 0.1 mM histamine solution was added to the bath (1x10^-6 M) in order to obtain a contraction of 0.2 g to 0.5 g of tension. After the contraction reached a plateau, 100 µl of ethanol: distilled water (1:1) (vehicle as control) was added to the bath. Eight minutes later, the preparation was relaxed by washing 4 to 6 times. […]
The relaxation induced by B-407 was expressed as a percentage on the histamine induced contraction. The average ± standard error of all the determinations were calculated ["The guinea-pig tracheal chain"; "Pharmacological Experiments on Isolated Preparations". […]

[3] = system: rat uterus under estrous condition; assay: C1: effect on PGF2α induced in vitro contraction of rat uterus under estrous condition; settings: PGF2α 10^-8 M, nutrient solution 0,84
Description: The experimental conditions were identical to those described in part A for the concentration-response curves without spontaneous contractions.
The uterus was allowed to equilibrate in a 10^-8 M PGF2α solution for 2 minutes, then the uterus was washed again during 15 minutes. This whole treatment was repeated twice.
as §1
* p < 0.05: Tested vs. nutrient solution by ANOVA and Scheffe. ** p < 0.02: Tested vs. nutrient solution by Student's-t-test. Ratio = Effect of PGF2α after B-407/(Effect of PG F2α before B-407 + Effect of B-407). S.E. = Standard Error
The frequency and magnitude of the responses were globally evaluated by calculating the total area recorded at a fixed time period as will be further explained. The areas under the curve of the recording paper, over 15 minutes periods, were cut and weighed both in the concentration-response curves and in the potentiating experiments.
The calibration was made by weighing a piece of paper which corresponded to a tension of 1 g at the working sensitivity along 2 minutes. Therefore, a relationship of area expressed in g/2 min was obtained and then the weights of the areas of the responses were transformed to unities of area. The results were expressed as the mean ± the standard error of the areas obtained. The statistical evaluation of the differences was carried out either by ANOVA or by Student's-t-test, as appropriate.

CCCCC(C)(O)C/C=C/[C@H]1[C@H](O)CC(=O)[C@@H]1CCCC/C=C/C(=O)OC (mixture of isomers) [B-407, trans-Δ^2-15-deoxy-16-hydroxy-16-methyl PGE1 methyl ester] was tested, and the Higher lasting time (anesthetized rat; 10 µg/kg) was 0,66 min, the “HR (Heart Rate)” value (anesthetized rat; 10 µg/kg) was 430,6 ± 7,2 Beats / min and the “Δ MBP (Mean Blood Pressure)” value (anesthetized rat; 10 µg/kg) was -11,0 ± 1,3 mm Hg. The Higher lasting time (anesthetized rat; 30 µg/kg) was 2,5 min, the “HR (Heart Rate)” value (anesthetized rat; 30 µg/kg) was 420,7 ± 4,1 Beats / min and the “Δ MBP (Mean Blood Pressure)” value (anesthetized rat; 30 µg/kg) was -29,8 ± 3,8 mm Hg. The Higher lasting time (anesthetized rat; 100 µg/kg) was 5,5 min, the “HR (Heart Rate)” value (anesthetized rat; 100 µg/kg) was 452,7 ± 16,7 Beats / min and the “Δ MBP (Mean Blood Pressure)” value (anesthetized rat; 100 µg/kg) was -47,7 ± 3,3 mm Hg. The “Ratio = Effect of PGF2α after B-407/(Effect of PG F2α before B-407 + Effect of B-407)” value (shortened to “Ratio = Effect of PGF2α”) [1] was 2,35, the “Fraction (animals fallen before 300 sec/total number of animals)” value (Swiss male mice) was 1/10 and the “% of relaxation” value [2] was 35 ± 5%. For the same compound, the “Ratio = Effect of PGF2α” value ([3]; B-407 3x10^-7 M, p < 0.05) was 2,06, the “Ratio = Effect of PGF2α” value ([3]; B-407 3x10^-8 M) was 1,69 and the “Ratio = Effect of PGF2α” value ([3]; B-407 3x10^-9 M) was 1,29.
